Test results: patent publication US6737383B1, “Herbicidal oxadiazolidines” (priority 1999, dated 2004)

How the values were obtained:
bedstraw = assay: Test B pre/postemergence bedstraw; type: in vivo, Galium aparine
Summary of the method: (§1)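 Test chemicals in a non-phytotoxic solvent mixture with surfactant were sprayed preemergence onto planted seeds and postemergence onto plants 2 to 18 cm tall (1- to 4-leaf stage). After twelve to sixteen days in a greenhouse, injury was visually rated against untreated controls from 0 (no effect) to 10 (complete control).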

blackgrass = assay: Test B pre/postemergence blackgrass; type: in vivo, Alopecurus myosuroides
Summary of the method: as §1

surinam grass = assay: Test B pre/postemergence surinam grass; type: in vivo, Brachiaria decumbens
Summary of the method: as §1

corn = assay: Test B pre/postemergence corn; type: in vivo, Zea mays
Summary of the method: as §1

crabgrass = assay: Test B pre/postemergence crabgrass; type: in vivo, Digitaria sanguinalis
Summary of the method: as §1

giant foxtail = assay: Test B pre/postemergence giant foxtail; type: in vivo, Setaria faberii
Summary of the method: as §1

morningglory = assay: Test B pre/postemergence morningglory; type: in vivo, Ipomoea hederacea
Summary of the method: as §1

rape = assay: Test B pre/postemergence rape; type: in vivo, Brassica napus
Summary of the method: as §1

soybean = assay: Test B pre/postemergence soybean; type: in vivo, Glycine max
Summary of the method: as §1

velvetleaf = assay: Test B pre/postemergence velvetleaf; type: in vivo, Abutilon theophrasti
Summary of the method: as §1

wheat = assay: Test B pre/postemergence wheat; type: in vivo, Triticum aestivum
Summary of the method: as §1

wild oat = assay: Test B pre/postemergence wild oat; type: in vivo, Avena fatua
Summary of the method: as §1

purple nutsedge = assay: Test B pre/postemergence purple nutsedge; type: in vivo, Cyperus rotundus
Summary of the method: as §1

rice = assay: Test B flood test rice; type: in vivo, Oryza sativa
Summary of the method: (§2)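 Plants were grown to the 2-leaf stage before treatment with test chemical, then held in a greenhouse for twelve to sixteen days. Injury was visually rated against untreated controls on a 0–10 scale, where 0 is no effect and 10 is complete control.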

smallflower flatsedge = assay: Test B flood test smallflower flatsedge; type: in vivo, Cyperus difformis
Summary of the method: as §2

duck salad = assay: Test B flood test duck salad; type: in vivo, Heteranthera limosa
Summary of the method: as §2

[1] = Postemergence, Rate 31 g/ha, visual rating, scale 0 to 10 (0 no effect, 10 complete control)
[2] = Preemergence, Rate 31 g/ha, visual rating, scale 0 to 10 (0 no effect, 10 complete control)
[3] = Preemergence, Rate 62 g/ha, scale of 0 to 10 where 0 is no effect and 10 is complete control
[4] = Rate 16 g/ha, Postemergence, scale 0 to 10, 0 no effect, 10 complete control
[5] = Rate 16 g/ha, Preemergence, scale 0 to 10, 0 no effect, 10 complete control
[6] = Rate 62 g/ha, Postemergence, scale 0 to 10 (0 no effect, 10 complete control)
[7] = Rate 125 g/ha, Postemergence, scale of 0 to 10 where 0 is no effect and 10 is complete control
[8] = Rate 125 g/ha, Preemergence, scale of 0 to 10 where 0 is no effect and 10 is complete control
[9] = Rate 16 g/ha, head printed Pre-emergence (flood test species), scale 0 to 10, 0 no effect, 10 complete control
[10] = Rate 31 g/ha, Pre-emergence section (flood test species), scale 0 to 10
[11] = Rate 62 g/ha, headed Pre-emergence (flood test species), scale 0 to 10 (0 no effect, 10 complete control)
[12] = Rate 125 g/ha, Pre-emergence, flood test species, scale 0 to 10 where 0 is no effect and 10 is complete control
[13] = Rate 250 g/ha, Pre-emergence, flood-test species, scale 0 to 10, 0 is no effect, 10 is complete control
[14] = Rate 500 g/ha, Pre-emergence, flood test species, scale 0 to 10 (0 no effect, 10 complete control)

C=CCCCn1c(=O)on(C(=O)N(c2ccc(F)cc2)C(C)C)c1=O [Compound 291]
Bedstraw plant response rating (bedstraw; [1]): 0
Bedstraw plant response rating (bedstraw; [2]): 0
Bedstraw plant response rating (bedstraw; [3]): 0
Bedstraw plant response rating (bedstraw; [4]): 0
Bedstraw plant response rating (bedstraw; [5]): 0
Bedstraw plant response rating (bedstraw; [6]): 0
Bedstraw plant response rating (bedstraw; [7]): 3
Bedstraw plant response rating (bedstraw; [8]): 0
Blackgrass plant response rating (blackgrass; [1]): 0
Blackgrass plant response rating (blackgrass; [2]): 0
Blackgrass plant response rating (blackgrass; [3]): 0
Blackgrass plant response rating (blackgrass; [4]): 0
Blackgrass plant response rating (blackgrass; [5]): 0
Blackgrass plant response rating (blackgrass; [6]): 1
Blackgrass plant response rating (blackgrass; [7]): 2
Blackgrass plant response rating (blackgrass; [8]): 8
B. signalgrass plant response rating (surinam grass; [1]): 0
B. signalgrass plant response rating (surinam grass; [2]): 0
B. signalgrass plant response rating (surinam grass; [3]): 0
B. signalgrass plant response rating (surinam grass; [4]): 0
B. signalgrass plant response rating (surinam grass; [5]): 0
B. signalgrass plant response rating (surinam grass; [6]): 0
B. signalgrass plant response rating (surinam grass; [7]): 0
B. signalgrass plant response rating (surinam grass; [8]): 3
Corn plant response rating (corn; [1]): 0
Corn plant response rating (corn; [2]): 0
Corn plant response rating (corn; [3]): 0
Corn plant response rating (corn; [4]): 0
Corn plant response rating (corn; [5]): 0
Corn plant response rating (corn; [6]): 0
Corn plant response rating (corn; [7]): 0
Corn plant response rating (corn; [8]): 0
Crabgrass plant response rating (crabgrass; [1]): 0
Crabgrass plant response rating (crabgrass; [2]): 0
Crabgrass plant response rating (crabgrass; [3]): 0
Crabgrass plant response rating (crabgrass; [4]): 0
Crabgrass plant response rating (crabgrass; [5]): 0
Crabgrass plant response rating (crabgrass; [6]): 0
Crabgrass plant response rating (crabgrass; [7]): 0
Crabgrass plant response rating (crabgrass; [8]): 0
Giant foxtail plant response rating (giant foxtail; [1]): 0
Giant foxtail plant response rating (giant foxtail; [2]): 8
Giant foxtail plant response rating (giant foxtail; [3]): 8
Giant foxtail plant response rating (giant foxtail; [4]): 0
Giant foxtail plant response rating (giant foxtail; [5]): 7
Giant foxtail plant response rating (giant foxtail; [6]): 0
Giant foxtail plant response rating (giant foxtail; [7]): 0
Giant foxtail plant response rating (giant foxtail; [8]): 9
Morningglory plant response rating (morningglory; [1]): 1
Morningglory plant response rating (morningglory; [2]): 0
Morningglory plant response rating (morningglory; [3]): 0
Morningglory plant response rating (morningglory; [4]): 1
Morningglory plant response rating (morningglory; [5]): 0
Morningglory plant response rating (morningglory; [6]): 4
Morningglory plant response rating (morningglory; [7]): 4
Morningglory plant response rating (morningglory; [8]): 0
Rape plant response rating (rape; [1]): 0
Rape plant response rating (rape; [2]): 0
Rape plant response rating (rape; [3]): 0
Rape plant response rating (rape; [4]): 0
Rape plant response rating (rape; [5]): 0
Rape plant response rating (rape; [6]): 0
Rape plant response rating (rape; [7]): 1
Rape plant response rating (rape; [8]): 0
Soybean plant response rating (soybean; [1]): 1
Soybean plant response rating (soybean; [2]): 0
Soybean plant response rating (soybean; [3]): 0
Soybean plant response rating (soybean; [4]): 1
Soybean plant response rating (soybean; [5]): 0
Soybean plant response rating (soybean; [6]): 1
Soybean plant response rating (soybean; [7]): 3
Soybean plant response rating (soybean; [8]): 0
Velvetleaf plant response rating (velvetleaf; [1]): 0
Velvetleaf plant response rating (velvetleaf; [2]): 0
Velvetleaf plant response rating (velvetleaf; [3]): 0
Velvetleaf plant response rating (velvetleaf; [4]): 0
Velvetleaf plant response rating (velvetleaf; [5]): 0
Velvetleaf plant response rating (velvetleaf; [6]): 0
Velvetleaf plant response rating (velvetleaf; [7]): 0
Velvetleaf plant response rating (velvetleaf; [8]): 0
Wheat plant response rating (wheat; [1]): 0
Wheat plant response rating (wheat; [2]): 0
Wheat plant response rating (wheat; [3]): 0
Wheat plant response rating (wheat; [4]): 0
Wheat plant response rating (wheat; [5]): 0
Wheat plant response rating (wheat; [6]): 0
Wheat plant response rating (wheat; [7]): 0
Wheat plant response rating (wheat; [8]): 0
Wild oats plant response rating (wild oat; [1]): 0
Wild oats plant response rating (wild oat; [2]): 0
Wild oats plant response rating (wild oat; [3]): 0
Wild oats plant response rating (wild oat; [4]): 0
Wild oats plant response rating (wild oat; [5]): 0
Wild oats plant response rating (wild oat; [6]): 0
Wild oats plant response rating (wild oat; [7]): 0
Nutsedge plant response rating (purple nutsedge; [1]): 0
Nutsedge plant response rating (purple nutsedge; [2]): 0
Nutsedge plant response rating (purple nutsedge; [3]): 0
Nutsedge plant response rating (purple nutsedge; [4]): 0
Nutsedge plant response rating (purple nutsedge; [5]): 0
Nutsedge plant response rating (purple nutsedge; [6]): 0
Nutsedge plant response rating (purple nutsedge; [7]): 0
Nutsedge plant response rating (purple nutsedge; [8]): 0
Rice plant response rating (rice; [9]): 0
Rice plant response rating (rice; [10]): 0
Rice plant response rating (rice; [11]): 0
Rice plant response rating (rice; [12]): 2
Rice plant response rating (rice; [13]): 0
Rice plant response rating (rice; [14]): 0
S. Flatsedge plant response rating (smallflower flatsedge; [9]): 0
S. Flatsedge plant response rating (smallflower flatsedge; [10]): 0
S. Flatsedge plant response rating (smallflower flatsedge; [11]): 0
S. Flatsedge plant response rating (smallflower flatsedge; [12]): 0
S. Flatsedge plant response rating (smallflower flatsedge; [13]): 0
S. Flatsedge plant response rating (smallflower flatsedge; [14]): 0
Ducksalad plant response rating (duck salad; [9]): 0
Ducksalad plant response rating (duck salad; [10]): 0
Ducksalad plant response rating (duck salad; [11]): 0
Ducksalad plant response rating (duck salad; [12]): 0
Ducksalad plant response rating (duck salad; [13]): 0
Ducksalad plant response rating (duck salad; [14]): 0
